Data reported in publication PMC7797525 (iScience, 2020).

Tests used:
RecA [1] = biological target: T1, RecA (Escherichia coli, UniProt P0A7G6, Y104A); assay: isothermal titration calorimetry; format: binding
T1 sequence (P0A7G6 2-353 Y104A): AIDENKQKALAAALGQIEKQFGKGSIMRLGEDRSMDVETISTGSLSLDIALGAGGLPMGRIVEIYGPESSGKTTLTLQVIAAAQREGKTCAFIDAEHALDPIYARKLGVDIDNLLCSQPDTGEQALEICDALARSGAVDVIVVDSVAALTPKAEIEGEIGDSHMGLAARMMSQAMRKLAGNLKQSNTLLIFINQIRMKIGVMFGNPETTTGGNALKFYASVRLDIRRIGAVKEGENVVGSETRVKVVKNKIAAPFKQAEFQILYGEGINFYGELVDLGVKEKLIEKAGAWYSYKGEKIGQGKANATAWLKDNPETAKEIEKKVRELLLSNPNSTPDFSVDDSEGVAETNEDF

RecA [2] = biological target: T2, RecA (Escherichia coli, UniProt P0A7G6); assay: isothermal titration calorimetry; format: binding
T2 sequence (P0A7G6 2-353): T1 sequence (P0A7G6 2-353 Y104A)

| Kd (RecA [1]) [µM] | Kd (RecA [2]) [µM] | Compound |
| --- | --- | --- |
| 40.2 | 17.6 | Cc1ccc(C(=O)Nc2ccc(S(=O)(=O)O)c3cc(S(=O)(=O)O)cc(S(=O)(=O)O)c23)cc1NC(=O)c1cccc(NC(=O)Nc2cccc(C(=O)Nc3cc(C(=O)Nc4ccc(S(=O)(=O)O)c5cc(S(=O)(=O)O)cc(S(=O)(=O)O)c45)ccc3C)c2)c1 [cpd01, suramin] |
| – | 18.8 | COc1cc(-c2ccc(N=Nc3ccc4c(S(=O)(=O)O)cc(S(=O)(=O)O)c(N)c4c3O)c(OC)c2)ccc1N=Nc1ccc2c(S(=O)(=O)O)cc(S(=O)(=O)O)c(N)c2c1O [s05, Chicago sky blue] |
| – | 11.5 | Cc1cc(-c2ccc(/N=N/c3ccc4c(S(=O)(=O)O)cc(S(=O)(=O)O)c(N)c4c3O)c(C)c2)ccc1/N=N/c1ccc2c(S(=O)(=O)O)cc(S(=O)(=O)O)c(N)c2c1O [s06, Evans blue] |
